Data: ChEMBL document CHEMBL1201862, “PubChem BioAssay data set” (2004)
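Method: 48-hour compound exposure of cells in 96-well plates, five concentrations, linear interpolation of endpoints. At the GI50, growth is halved.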 The source made the active and inactive calls. Cut-off read from the data, not from the text of the source: active = GI50 up to about 1.1 µM and inactive = higher.

Columns and labels:
Assay in all cases: growth of human tumour cells (NCI), 48 h
786-0 = tested on: 786-0
A498 = tested on: A498
A549 = tested on: A549
ACHN = tested on: ACHN
CAKI-1 = tested on: CAKI-1
CCRF-CEM = tested on: CCRF-CEM
COLO 205 = tested on: COLO 205
DLD-1 = tested on: DLD-1
DMS-114 = tested on: DMS-114
DMS-273 = tested on: DMS-273
EKVX = tested on: EKVX
HCT-116 = tested on: HCT-116
HCT-15 = tested on: HCT-15
HL-60 = tested on: HL-60
HOP-18 = tested on: HOP-18
HOP-92 = tested on: HOP-92
HT-29 = tested on: HT-29
IGROV-1 = tested on: IGROV-1
K562 = tested on: K562
KM-20L2 = tested on: KM-20L2
KM12 = tested on: KM12
LOX IMVI = tested on: LOX IMVI
LXFL 529 = tested on: LXFL 529
M14 = tested on: M14
M19-MEL = tested on: M19-MEL
MOLT-4 = tested on: MOLT-4
NCI-H226 = tested on: NCI-H226
NCI-H23 = tested on: NCI-H23
NCI-H460 = tested on: NCI-H460
OVCAR-3 = tested on: OVCAR-3
OVCAR-4 = tested on: OVCAR-4
OVCAR-8 = tested on: OVCAR-8
RPMI-8226 = tested on: RPMI-8226
RXF 393 = tested on: RXF 393
SF-268 = tested on: SF-268
SF-295 = tested on: SF-295
SF-539 = tested on: SF-539
SK-MEL-28 = tested on: SK-MEL-28
SK-MEL-2 = tested on: SK-MEL-2
SK-MEL-5 = tested on: SK-MEL-5
SK-OV-3 = tested on: SK-OV-3
SN12C = tested on: SN12C
SNB-19 = tested on: SNB-19
SNB-75 = tested on: SNB-75
SNB-78 = tested on: SNB-78
SW-620 = tested on: SW-620
TK-10 = tested on: TK-10
U-251 = tested on: U-251
UACC-257 = tested on: UACC-257
UACC-62 = tested on: UACC-62
UO-31 = tested on: UO-31
XF498 = tested on: XF498
HCC 2998 = tested on: HCC 2998
HOP-62 = tested on: HOP-62
Malme-3M = tested on: Malme-3M
OVCAR-5 = tested on: OVCAR-5
RXF 631 = tested on: RXF 631
SR = tested on: SR
BT-549 = tested on: BT-549
Hs-578T = tested on: Hs-578T
MCF7 = tested on: MCF7
MDA-MB-231 = tested on: MDA-MB-231
MDA-MB-435 = tested on: MDA-MB-435
MDA-N = tested on: MDA-N
NCI-H522 = tested on: NCI-H522
NCI/ADR-RES = tested on: NCI/ADR-RES
PC-3 = tested on: PC-3
T47D = tested on: T47D

NCC(=O)OCN1C(=O)C2C3C=CC(C2C1=O)C1C2C(=O)N(COC(=O)CN)C(=O)C2C31 (configuration not stated)
GI50 (786-0): 19.6 µM (inactive) | GI50 (A498): 87.5 µM (inactive) | GI50 (A549): 25.5 µM (inactive) | GI50 (ACHN): 24.5 µM (inactive) | GI50 (CAKI-1): 32.9 µM (inactive) | GI50 (CCRF-CEM): 21 µM (inactive) | GI50 (COLO 205): 18.2 µM (inactive) | GI50 (DLD-1): 25.1 µM (inactive) | GI50 (DMS-114): 16.2 µM (inactive) | GI50 (DMS-273): 19.8 µM (inactive) | GI50 (EKVX): > 100 µM (inactive) | GI50 (HCT-116): 14.6 µM (inactive) | GI50 (HCT-15): 16.9 µM | GI50 (HL-60): 18.2 µM (inactive) | GI50 (HOP-18): 25.9 µM (inactive) | GI50 (HOP-92): > 100 µM (inactive) | GI50 (HT-29): 36.6 µM (inactive) | GI50 (IGROV-1): 40.2 µM (inactive) | GI50 (K562): 28.6 µM (inactive) | GI50 (KM-20L2): 28.6 µM (inactive) | GI50 (KM12): 20.8 µM (inactive) | GI50 (LOX IMVI): 19.1 µM (inactive) | GI50 (LXFL 529): 36.2 µM (inactive) | GI50 (M14): 18.9 µM (inactive) | GI50 (M19-MEL): 21 µM (inactive) | GI50 (MOLT-4): 16.9 µM (inactive) | GI50 (NCI-H226): 39.5 µM (inactive) | GI50 (NCI-H23): 29.2 µM (inactive) | GI50 (NCI-H460): 17.3 µM (inactive) | GI50 (OVCAR-3): 35 µM (inactive) | GI50 (OVCAR-4): 26.1 µM (inactive) | GI50 (OVCAR-8): 20.3 µM (inactive) | GI50 (RPMI-8226): 28 µM (inactive) | GI50 (RXF 393): 24 µM (inactive) | GI50 (SF-268): 23.4 µM (inactive) | GI50 (SF-295): 53.7 µM (inactive) | GI50 (SF-539): 18.9 µM (inactive) | GI50 (SK-MEL-28): 19.5 µM (inactive) | GI50 (SK-MEL-2): 21.4 µM (inactive) | GI50 (SK-MEL-5): 17.7 µM (inactive) | GI50 (SK-OV-3): 60.8 µM (inactive) | GI50 (SN12C): 23.3 µM (inactive) | GI50 (SNB-19): 48.8 µM (inactive) | GI50 (SNB-75): 32.3 µM (inactive) | GI50 (SNB-78): 53.6 µM (inactive) | GI50 (SW-620): 24.4 µM (inactive) | GI50 (TK-10): 53.1 µM (inactive) | GI50 (U-251): 18.7 µM (inactive) | GI50 (UACC-257): 31.8 µM (inactive) | GI50 (UACC-62): 24.2 µM (inactive) | GI50 (UO-31): 56.8 µM (inactive) | GI50 (XF498): 31.4 µM (inactive)

CCCCCCCC(=O)OC(COC(=O)Cc1ccccc1)COC(=O)C(C)(C)C (configuration not stated)
GI50 (786-0): > 100 µM (inactive) | GI50 (A498): > 100 µM (inactive) | GI50 (A549): > 100 µM (inactive) | GI50 (ACHN): > 100 µM (inactive) | GI50 (CAKI-1): > 100 µM (inactive) | GI50 (CCRF-CEM): > 100 µM (inactive) | GI50 (COLO 205): 46.3 µM (inactive) | GI50 (DLD-1): > 100 µM (inactive) | GI50 (DMS-114): > 100 µM (inactive) | GI50 (DMS-273): > 100 µM (inactive) | GI50 (HCC 2998): > 100 µM (inactive) | GI50 (HCT-116): > 100 µM (inactive) | GI50 (HCT-15): > 100 µM | GI50 (HL-60): 51.6 µM (inactive) | GI50 (HOP-18): > 100 µM (inactive) | GI50 (HOP-62): > 100 µM (inactive) | GI50 (HOP-92): 32.8 µM (inactive) | GI50 (IGROV-1): > 100 µM (inactive) | GI50 (K562): 52.4 µM (inactive) | GI50 (KM-20L2): > 100 µM (inactive) | GI50 (LOX IMVI): > 100 µM (inactive) | GI50 (LXFL 529): 95.3 µM (inactive) | GI50 (M14): > 100 µM (inactive) | GI50 (M19-MEL): > 100 µM (inactive) | GI50 (MOLT-4): 71.9 µM (inactive) | GI50 (Malme-3M): > 100 µM (inactive) | GI50 (NCI-H226): > 100 µM (inactive) | GI50 (NCI-H23): > 100 µM (inactive) | GI50 (NCI-H460): > 100 µM (inactive) | GI50 (OVCAR-3): > 100 µM (inactive) | GI50 (OVCAR-4): > 100 µM (inactive) | GI50 (OVCAR-5): > 100 µM (inactive) | GI50 (OVCAR-8): > 100 µM (inactive) | GI50 (RPMI-8226): > 100 µM (inactive) | GI50 (RXF 631): > 100 µM (inactive) | GI50 (SF-268): > 100 µM (inactive) | GI50 (SF-295): > 100 µM (inactive) | GI50 (SK-MEL-28): > 100 µM (inactive) | GI50 (SK-MEL-5): 74 µM (inactive) | GI50 (SK-OV-3): > 100 µM (inactive) | GI50 (SN12C): > 100 µM (inactive) | GI50 (SNB-19): > 100 µM (inactive) | GI50 (SR): 64 µM (inactive) | GI50 (SW-620): > 100 µM (inactive) | GI50 (TK-10): > 100 µM (inactive) | GI50 (U-251): > 100 µM (inactive) | GI50 (UACC-62): > 100 µM (inactive) | GI50 (UO-31): > 100 µM (inactive)

CC(Oc1ccc(Oc2cnc3ccc(Cl)cc3n2)cc1)C(=O)O (configuration not stated)
GI50 (786-0): > 81.1 µM (inactive) | GI50 (A498): > 62.1 µM (inactive) | GI50 (A549): 81.1 µM (inactive) | GI50 (ACHN): 60 µM (inactive) | GI50 (BT-549): > 73.1 µM (inactive) | GI50 (CAKI-1): 64.1 µM (inactive) | GI50 (COLO 205): 55.7 µM (inactive) | GI50 (DLD-1): > 100 µM (inactive) | GI50 (DMS-114): > 100 µM (inactive) | GI50 (DMS-273): > 100 µM (inactive) | GI50 (EKVX): > 99.8 µM (inactive) | GI50 (HCC 2998): > 87.9 µM (inactive) | GI50 (HCT-116): 58.7 µM (inactive) | GI50 (HCT-15): > 74.1 µM | GI50 (HOP-18): > 100 µM (inactive) | GI50 (HOP-62): > 74.5 µM (inactive) | GI50 (HT-29): > 95.3 µM (inactive) | GI50 (Hs-578T): > 62.2 µM (inactive) | GI50 (IGROV-1): > 64.1 µM (inactive) | GI50 (K562): > 100 µM (inactive) | GI50 (KM-20L2): > 100 µM (inactive) | GI50 (KM12): > 84.5 µM (inactive) | GI50 (LOX IMVI): 51.6 µM (inactive) | GI50 (LXFL 529): > 100 µM (inactive) | GI50 (M14): > 91.6 µM (inactive) | GI50 (M19-MEL): > 100 µM (inactive) | GI50 (MCF7): 26.6 µM (inactive) | GI50 (MDA-MB-231): > 89.5 µM (inactive) | GI50 (MDA-MB-435): > 84.5 µM (inactive) | GI50 (MDA-N): > 86.7 µM (inactive) | GI50 (MOLT-4): 11.7 µM (inactive) | GI50 (Malme-3M): > 45 µM (inactive) | GI50 (NCI-H23): > 76.4 µM (inactive) | GI50 (NCI-H460): 19.1 µM (inactive) | GI50 (NCI-H522): 29.5 µM (inactive) | GI50 (NCI/ADR-RES): > 95.3 µM (inactive) | GI50 (OVCAR-3): > 84.5 µM (inactive) | GI50 (OVCAR-4): > 92.5 µM (inactive) | GI50 (OVCAR-8): > 80.5 µM (inactive) | GI50 (PC-3): > 100 µM (inactive) | GI50 (RPMI-8226): > 73.6 µM (inactive) | GI50 (RXF 393): > 81.8 µM (inactive) | GI50 (SF-268): > 100 µM (inactive) | GI50 (SF-295): > 89.9 µM (inactive) | GI50 (SF-539): > 65.2 µM (inactive) | GI50 (SK-MEL-28): > 76.7 µM (inactive) | GI50 (SK-MEL-2): > 88.5 µM (inactive) | GI50 (SK-MEL-5): 72.3 µM (inactive) | GI50 (SK-OV-3): > 100 µM (inactive) | GI50 (SN12C): > 100 µM (inactive) | GI50 (SNB-19): > 62.1 µM (inactive) | GI50 (SNB-75): 84.5 µM (inactive) | GI50 (SNB-78): > 100 µM (inactive) | GI50 (SR): 30.1 µM (inactive) | GI50 (SW-620): > 91.6 µM (inactive) | GI50 (T47D): 84.1 µM (inactive) | GI50 (TK-10): > 95.9 µM (inactive) | GI50 (U-251): > 63.7 µM (inactive) | GI50 (UACC-257): > 86.3 µM (inactive) | GI50 (UACC-62): 65.3 µM (inactive) | GI50 (UO-31): 72.1 µM (inactive) | GI50 (XF498): > 100 µM (inactive)
